Laboratory results reported in paper PMC10819767, “An ADAM10 Exosite Inhibitor Is Efficacious in an In Vivo Collagen-Induced Arthritis Model” (Pharmaceuticals, 2024).

Tests used:
ADAM17 = target: T1, ADAM17 (Homo sapiens, UniProt P78536); assay: ADAM17 enzyme assay with glycosylated substrate DM2; format: biochemical; settings: for selectivity against ADAM17 (in words): ADAM10 vs ADAM17
T1 construct: purchased R & D Systems (Minneapolis, MN, USA)
Experimental: (§1) ADAM10 and ADAM17 assays. Both assays were performed as published previously by us. Briefly, both assays followed the same general protocol. In total, 5 μL of the 2× enzyme solution (20 nM) in an assay buffer (10 mM Hepes, 0.001% Brij-35, pH 7.5) were added to solid bottom black 384 plates (Nunc, ThermoFisher, Waltham, MA, USA, cat# 264705). Next, test compounds and pharmacological controls were added to the corresponding wells using a 384-pin tool device (V & P Scientific, San Diego, CA, USA). After 60 min of incubation at RT, the reactions were started via the addition of 5 μL of the 2× solutions of glycosylated substrate DM2 (20 μM). The reactions were incubated at RT for 2 h, after which the fluorescence was measured using a Biotek H1 multimode microplate imager (λexcitation = 360 nm, λemission = 460 nm). IC50 values were calculated by fitting normalized data to the sigmoidal log vs. the response equation utilizing a non-linear regression analysis from GraphPad Prizm 9.

ADAM10 = target: T2, ADAM10 (Homo sapiens, UniProt O14672); assay: ADAM10 enzyme assay with glycosylated substrate DM2; format: biochemical; settings: for activity against ADAM10 (in words): SAR discussion
T2 construct: purchased R & D Systems (Minneapolis, MN, USA)
T2 sequence (O14672 214-748): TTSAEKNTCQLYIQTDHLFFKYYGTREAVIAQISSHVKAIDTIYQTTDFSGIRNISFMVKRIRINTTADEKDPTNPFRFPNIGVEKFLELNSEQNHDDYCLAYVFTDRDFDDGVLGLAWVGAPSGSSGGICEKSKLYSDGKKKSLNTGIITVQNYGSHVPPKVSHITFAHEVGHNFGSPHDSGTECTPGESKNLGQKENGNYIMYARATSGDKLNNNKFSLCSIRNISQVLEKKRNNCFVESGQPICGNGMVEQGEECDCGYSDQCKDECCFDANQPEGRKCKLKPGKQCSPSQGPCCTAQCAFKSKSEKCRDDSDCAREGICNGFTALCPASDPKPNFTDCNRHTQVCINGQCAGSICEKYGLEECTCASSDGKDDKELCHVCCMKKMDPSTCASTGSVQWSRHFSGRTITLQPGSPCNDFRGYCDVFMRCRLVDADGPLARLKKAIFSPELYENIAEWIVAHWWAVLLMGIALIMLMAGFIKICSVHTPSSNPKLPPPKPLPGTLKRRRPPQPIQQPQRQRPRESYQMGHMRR
Experimental: as §1

[1] = test system: collagen-induced arthritis (CIA) model; assay: CIA mouse model: clinical arthritis score and paw swelling; format: in vivo, C57 BL/6 mice; settings: indomethacin 2.5 mg/kg oral, scale 0–4
Experimental: In vivo efficacy in the CIA mouse model. All animal studies were conducted in accordance with NSU IACUC guidelines. Study protocol #2021.04.DM5 was approved by NSU IACUC before the commencement of the studies. CID 3117694 and indomethacin were ground with a small amount of the dispersing agent (0.5% HPMC (3 cP)–0.5% Tween 80) using a mortar and a pestle and mixed repeatedly to form a smooth paste. The paste was moved to a graduated cylinder and filled up to the required volume with the dispersing agent to form a suspension, as described elsewhere. The test compound (10, 30, and 50 mg/kg) and indomethacin (2.5 mg/kg) were administered with a mouse gavage needle (gauge no: 18, BD, catalog number: 653902) through the oral route as a suspension with a 5 mL/kg dose volume (from day 0 to day 28). In this study, 6–8-week-old C57 BL/6 mice from Charles River (male and female) were used. Animals were randomly assigned to one of the following six groups: (1) normal (non-RA control), (2) RA control untreated, (3) RA control treated with 2.5 mg/kg/day indomethacin, and 3 test groups (CID 3117694 (10 mg/kg/day, 30 mg/kg/day, and 50 mg/kg/day)) to provide an estimate for the lead compound’s efficacy range. Each group had three males and three females assigned to the control for gender-based differences. Arthritis was induced in the right paws of the mice under anaesthesia. The left paw of the mice was used as a control. A total of 10 µL collagen from bovine (type II collagen) nasal septum emulsion (2 mg/mL) was injected into the right knee joint with a glass Hamilton syringe and 25 G needles for intraarticular (i.a.) injection, followed by a total of 100 µL Complete Freund’s adjuvant (CFA) emulsion was injected at the back of mice using a syringe with 25 G needles subcutaneously (s.c.). On day 14 after the first injection, the mice were injected, i.e., with 10 µL of collagen from the bovine nasal septum ([…]) and s.c. with a 100 µL CFA emulsion for a boost injection. Arthritis progression was monitored using a clinical arthritis scoring system (0–4), and paw swelling was measured with the help of a plethysmograph on days 0, 14, 21, and 28 after the induction of arthritis. […] After the administration of a primary dose of collagen from the bovine nasal septum, CFA scoring was assessed. Measurements were taken on days 0, 14, 21, and 28 after the induction of arthritis in induced paws (right paw) and non-arthritis paws (left paw). CID 3117694 (10 mg/kg/day, 30 mg/kg/day, and 50 mg/kg/day) and pharmacological control (indomethacin 2.5 mg/kg/day) treatment were given every day for 28 days beginning from day 1 via oral gavage in hydroxy-propyl-methyl cellulose (HPMC) suspension.

IL-10 = assay: RA serum marker ELISA, IL-10, CIA mice; format: in vivo, C57 BL/6 mice; settings: CID 3117694 50 mg/kg/day; indomethacin 2.5 mg/kg
Experimental: (§2) The sample size for therapeutic evaluation was calculated using power analysis based on experimental data from similar studies. In a two-sided test and setting the α value at 0.05 and desired power at 0.95, the sample size turned out to be 5 per group. We also expected deaths during the experiments; therefore, we used the formula Nt = N/1-q, where Nt is the number of mice initially used, N is the number required at the end of the study, and q is the proportion of attrition, which is generally 10%. Thus, at the end of the study period, we expected to have data from at least 6 mice per group, which is enough to attain statistical significance if it exists. Data were analyzed using a one-way ANOVA followed by Dunnett’s test compared with the vehicle control. At the end of the study, the mice were anesthetized and sacrificed using CO2 euthanasia. The hind paws of the mice were subjected to a histopathological examination, and the serum was analyzed for CRP, TNF-α, IL-6, and IL-10, as described in the below sections.
(§3) RA serum marker analysis. Blood was collected from the tail vein, and 100 µL was used for the assays. All assays were conducted using the manufacturer’s instructions for the respective assay kits. The following assay kits were purchased: Mouse TNF-α GENLISA™ ELISA (Krishgen BioSystems cat#KB2145, Mumbai, India), Mouse IL-10 GENLISA™ ELISA (Krishgen BioSystems cat#KB2072), Mouse hsC-Reactive Protein, hs-CRP GENLISA™ ELISA (Krishgen BioSystems cat#KLM0318), Mouse IL-6 GENLISA™ ELISA (Krishgen BioSystems cat#KB2068).

[2] = test system: articular joints affected by RA; assay: Histopathology (H & E) of arthritic joint, CIA mice; format: in vivo, C57 BL/6 mice; settings: indomethacin 2.5 mg/kg/day
Experimental: as §2, with “sections. Histology. Limbs from euthanized animals were preserved in buffered formalin, decalcified, embedded, sectioned, and stained with hematoxylin and eosin (H & E). Microscopic images were acquired using the Lx 400 microscope (Labomed, Fremont, CA, USA).” for “sections.”

C-reactive protein (CRP) = assay: RA serum marker ELISA, CRP, CIA mice; format: in vivo, C57 BL/6 mice; settings: CID 3117694 50 mg/kg/day; indomethacin 2.5 mg/kg
Experimental: as §2, §3

TNFα = assay: RA serum marker ELISA, TNFα, CIA mice; format: in vivo, C57 BL/6 mice; settings: CID 3117694 50 mg/kg/day; indomethacin 2.5 mg/kg
Experimental: as §2, §3

IL-6 = assay: RA serum marker ELISA, IL-6, CIA mice; format: in vivo, C57 BL/6 mice; settings: CID 3117694 50 mg/kg/day; indomethacin 2.5 mg/kg
Experimental: as §2, §3

T1 sequence (P78536 215-824, species assumed): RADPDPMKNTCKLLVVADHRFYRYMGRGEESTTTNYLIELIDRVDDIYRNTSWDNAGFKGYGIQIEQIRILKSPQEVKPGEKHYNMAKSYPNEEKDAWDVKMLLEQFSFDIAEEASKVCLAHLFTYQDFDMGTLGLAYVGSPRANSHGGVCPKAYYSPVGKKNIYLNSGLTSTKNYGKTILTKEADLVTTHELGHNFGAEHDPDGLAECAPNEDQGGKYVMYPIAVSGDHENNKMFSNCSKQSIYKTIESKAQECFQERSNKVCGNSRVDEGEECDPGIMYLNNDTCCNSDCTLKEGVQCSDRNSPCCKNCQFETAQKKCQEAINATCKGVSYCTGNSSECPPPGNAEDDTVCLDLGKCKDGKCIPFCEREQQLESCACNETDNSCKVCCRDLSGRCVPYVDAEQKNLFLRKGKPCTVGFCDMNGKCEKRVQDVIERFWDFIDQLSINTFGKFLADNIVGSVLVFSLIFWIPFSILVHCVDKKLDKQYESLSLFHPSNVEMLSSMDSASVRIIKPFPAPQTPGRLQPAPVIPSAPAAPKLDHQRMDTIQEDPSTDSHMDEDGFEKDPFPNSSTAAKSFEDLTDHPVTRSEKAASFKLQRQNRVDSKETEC

Row | SMILES | IC50 (ADAM17) [µM] | IC50 (ADAM10) [µM] | activity against ADAM10 (in words) (ADAM10) | also measured
1 | CCc1ccc(NC(=O)C(=O)NNC(=O)c2ccc(C(C)(C)C)cc2)cc1 [CID 2113284] | > 100 | > 100 | – | –
2 | COc1ccccc1NC(=O)C(=O)NNC(=O)c1ccccc1Cl [CID 2273473] | 33 | 33 | reduced affinity | selectivity against ADAM17 (in words) (ADAM17): no selectivity
3 | Cc1ccccc1NC(=O)C(=O)NNC(=O)c1ccc(Cl)cc1 [CID 2869359] | > 100 | > 100 | did not rescue the activity | –
4 | Cc1ccccc1C(=O)NNC(=O)C(=O)Nc1cccc2ccccc12 [CID 2841765] | 2 | 2.8 | retrieved the activity | selectivity against ADAM17 (in words) (ADAM17): selectivity against ADAM17 was lost
5 | Cc1c(Cl)cccc1NC(=O)C(=O)NNC(=O)c1ccc(C(C)(C)C)cc1 [CID 2218294] | > 100 | > 100 | – | –
6 | COc1ccc2c(c1)c(CC(=O)O)c(C)n2C(=O)c1ccc(Cl)cc1 [indomethacin, reference compound] | – | – | – | disease score ([1]; day 21): 2; disease score ([1]; day 28): 1; IL-10 blood level vs healthy control (IL-10): the same as that of the healthy controls; histopathological findings (in words) [2]: presence of inflammation and hyperplasia; histopathological findings (in words) ([2]; listed as Indomethacin): only residual inflammation and hyperplasia; CRP blood level vs healthy control (C-reactive protein (CRP)): the same as that of the healthy controls; TNFα blood level vs healthy control (TNFα): the same as that of the healthy controls; IL-6 blood level vs healthy control (IL-6): the same as that of the healthy controls
7 | Cc1ccc(NC(=O)C(=O)NNC(=O)c2ccc(C(C)(C)C)cc2)cc1Cl [CID 2213247] | > 100 | > 100 | – | –
